The record followed here is patent US20060229255A1, “Identification of n-alkylglycine trimers for induction of apoptosis” (priority 2003, published 2006).

What all share (assay type): cell-based, human
The test system of experiment [1] is T98 g cells. Kind of experiment: Cell cycle DNA analysis in synchronized cells. The following applies: for Cells retained in G1: 19 h after serum re-addition, 100 μM. The method, then:
Experimentally this finding was substantiated analysing the compounds in a cellular model with synchronized cells. T98 g cells were arrested in G1 phase (82%) by serum starvation in MCDB 105 medium after 72 h. Upon 10% serum re-addition, cells were allowed to re-enter into the cell cycle. More than 50% of the cells were in the S-phase, and only 20% remained in G1 after 19 h of FCS introduction. Addition of N10-13-10C or N13-13-10C to the cultures at the moment of serum addition restrained S-phase entry (FIG. 7. A). Around 40% of the cells were retained in G1. In conclusions both N10-13-10C and N13-13-10C were able to induce a G1 arrest either in asynchronous or in synchronized cell cultures, as determined by cell cycle DNA analysis. In comparison, Olomucine which is a cdk2 inhibitor, retained 80% of the cells in G1. The topoisomerase II inhibitor etoposide treated cells were arrested in S phase of the cell cycle (85% of the cell population).
DNA analysis. Floating and adherent cells treated with the compounds were collected by trypsinization and washed twice with PBS. The cells were permeabilized overnight at −20° C. with ice-cold ethanol 70%. The cells were washed in PBS, adjusted at 0.5×10^6 cells/ml and incubated with 20 μg/ml Propidium Iodide and 2 μl/ml RNase DNase-free for 30 min at 30° C. Cells were maintained overnight at 4° C. and then analysed by flow cytometry. Flow cytometric experiments were carried out using an Epics XL flow cytometer (Coulter Corporation, Hialeah, Fla.). The instrumet was set up with the standard configuration: excitation of the sample was done using an standard 488 nm air-cooled argon-ion laser at 15 mW power. Forward scatter (FSC), side scatter (SSC) and red (620 nm) fluorescence for PI were adquired. Optical alignement was based on optimized signal from […] fluorescent beads (Immunocheck, Epics Division). Time was used as a control of the stability of the instrument. Red fluorescence was projected on a 1024 monoparametrical histogram. Aggregates were excluded gating single cells by their area vs. peak fluorescence signal. DNA analysis (Ploidy analysis) on single fluorescence histograms was done using Multicycle software (Phoenix Flow Systems, San Diego, Calif.).
(§1) FIG. 7. […] (A) T98 g cells were synchronized and reinitiated for 19 h with FCS alone or in combination with N10-13-10C (100 μM), N13-13-10C (100 μM), Olomucine (100 μM), etoposide (5 μM) or Taxol (30 nM). Cell cycle profile was assessed by propidium iodide DNA staining and analyzed by flow cytometry. The fraction of cells with G1, S, G2/M DNA content are shown as % of total cell population. (B. and C.) Synchronized T98 g cells were reinitiated with FCS alone or in combination with serial dilutions of N4-13-10C, N5-13-10C, N10-13-10C, N13-13-10C, Olomucine or etoposide for 19 h and labeled with BrdU during the last 2 h. BrdU incorporation was assessed by ELISA using anti-BrdU antibodies. An arbitrary value of 100% was assigned to the densiometric rate of DNA synthesis by untreated cultures and all other values are depicted relative to that reference. The values are means of three (n=3) replicates.

The subject of experiment [2] is T98g glioblastoma cells. Kind of experiment: BrdU incorporation assay (DNA synthesis). The following applies: synchronized T98 g, 17 h + 2 h BrdU, read-out: IC50 BrdU incorporation (DNA synthesis inhibition). The method, then:
To confirm the G1 arrest of the cell cycle, we analyzed the DNA synthesis by an BrdU incorporation assay. Serial dilutions of the compounds N4-13-10C, N5-13-10C, N10-13-10C, N13-13-10C, etoposide or olomucine were assayed on synchronized T98 g cells as described in FIG. 7. A. Arrested cells were induced to cell cycle re-entry by re-addition of serum alone or with test compounds for 17 h, followed by 2 h in combination with 10 μM BrdU.
BrdU assay. T98g glioblastoma cells at 5000 cells/well in microtiter plates were arrested in G1-phase for 72 h by serum deprivation in MCDB 105 medium. By serum (10%) readdition, cells were treated with serial dilutions of the compounds for 17 h, and followed in combination 10 μM BrdU for […]. BrdU incorporation, i.e. DNA synthesis, was quantified with Cell Proliferation ELISA system, vs. 2 (AmershamPharmacia biotech) as described by the manufacturer.
as §1
For orientation: Uptake of a labelled nucleoside into DNA is a usual measure of proliferation.

Experiment [3] concerns Bcl-xL. Kind of experiment: Western blot of Bcl-xL phosphorylation. Conditions: HT29 cells, 3, 6 and 24 h. The method, then: Western blotting. Floating and adherent cells were harvested and pellets were resuspended in RIPA buffer (50 mM Tris/HCl 7.4, 250 mM NaCl, 0,5% Igepal CA630, 5 mM EDTA, 1 mM PMSF, 10 μg/ml leupeptin, 50 mM NaF, 0.1 mM Na3VO4) or Deoxycholate buffer (10 mM phosphate buffer 7.4, […] NaCl, 0.5% Deoxycholate, 1% Igepal, 0.1% SDS, 1 mM PMSF). Protein concentration was determined with BCA Protein Assay Kit (Pierce) for RIPA extracts or Bradford assay (BioRad) for Deoxycholate extracts. Total protein (20-30 μg/lane) were separated by SDS-PAGE, transferred to PVDF membranes (Gellman), and probed with antibodies against Bcl-xL (Transduction); Bax (Santa Cruz); JNK (Santa Cruz); phospho-JNK (Cell Signaling); pRb (Pharmingen); pRb-phospho Ser780 (Cell Signalling); p130 (Santa Cruz); p107 (Santa Cruz); Cdk2 (Santa Cruz); p27^Kip1 (Santa Cruz); p21^Cip1 (Santa Cruz); actin (Sigma); or tubulin (ICN) and developed with ECL system (AmershamPharmacia biotech)
FIG. 6. (A) JNK is activated after N13-13-10C treatment. HT29 cells were treated for 1, 3, 6 and 24 h with N13-13-10C (35 μM), harvested and immunoblotted to assess activation of SAP/JNK MAP kinase. Western blot was first probed with the JNK-phosphor specific antibody, was stripped and reprobed with the pan-JNK antibody and actin to normalize total protein level. […]

Read-outs that look alike come from different tables or passages of the source.

As for `Cn1cnc2c(NCc3ccccc3)nc(NCCO)nc21` [Olomucine], the “Cells retained in G1” value in experiment [1] was determined as 80%; in experiment [1] (listed as olomucine), 82%. Besides, the IC50 in experiment [2] was 50 µM.

`CC(=O)O[C@H]1C(=O)[C@@]2(C)[C@H]([C@H](OC(=O)c3ccccc3)[C@]3(O)C[C@H](OC(=O)[C@H](O)[C@@H](NC(=O)c4ccccc4)c4ccccc4)C(C)=C1C3(C)C)[C@]1(OC(C)=O)CO[C@@H]1C[C@@H]2O` [Taxol, reference compound]: the “Bcl-xL phosphorylation (slower migrating band)” value in experiment [3] is “phosphorylated bcl-xL”. Besides, the “Effect on cell cycle profile” value in experiment [1] (19 h of treatment, Taxol 30 nM) was “does not effect cell cycle profile”.

`COc1cc([C@@H]2c3cc4c(cc3[C@@H](O[C@@H]3O[C@@H]5CO[C@@H](C)O[C@H]5[C@H](O)[C@H]3O)[C@H]3COC(=O)[C@H]23)OCO4)cc(OC)c1O` [etoposide, reference compound]: the “Cells arrested in S phase” value in experiment [1] (19 h, etoposide 5 μM) amounted to 85%. In addition, in experiment [2] (Homo sapiens, T98G), the IC50 is 200 µM.
